Measured values from patent US11846640B2, “Identification of anticoagulants in a sample” (DSM IP Assets B.V., priority 2013, dated 2023).

Key:
Assay type in all cases: biochemical, human
[1] = system: normal plasma pool (NPP); experiment: PiCT Method 1 (standard Pefakit PiCT) clotting time on ACL TOP 500; conditions: for Clotting time with PiCT ® Method 1: spiked plasma
From the text: As described by Korte et al. (supra) or in EP 1240528, Pefakit® PiCT® is a functional clotting assay based on the direct activation of the prothrombinase complex which results in a fine-tuned analytical output directly proportional to the final anticoagulant activity of the factor Xa or factor IIa inhibitors (see Calatzis, Haemostasis 2000, 30:172-174). To perform the Pefakit® PiCT® test (referred to herein as standard “PiCT® or PiCT® Method 1), a defined amount of PiCT® activator (=reagent 1) is added to a sample, such as, e.g., plasma. The mixture is allowed to proceed at 37° C. for a specific period of time. The Start reagent (=reagent 2) is then added to the mixture and the time required for clot formation is measured. The presence of anticoagulants in the samples dose-dependently prolongs the time to clot. Pefakit® PiCT® is adapted to laboratory instruments based on mechanical or optical detection systems, including but not limited to ACL TOP® family (Instrumentation Laboratory), preferably ACL TOP® 500, STA Compact® series (Stago) or the BCS® XP series (Siemens).
The 4 methods (see above) are in more detail described in the Examples. Specific pipetting schemes were designed using NPP spiked with incremental amounts of anticoagulants in order to achieve high reproducibility of the test system, which is required for drug identification including use in a POC system. With regards to the ACL TOP® 500 analyzer, PiCT® Method 1 to 4 has been established as follows: • PiCT® Method 1: 50 μl of plasma is incubated for 180 sec with 50 μl of reagent 1 and afterwards 50 μl of reagent 2 is added and the time to clot is recorded on the ACL TOP® 500 (i.e. pipetting scheme: P-50/A-50/I-180/50-S). This method is in particularly useful for detection of UFH, LMWH or hirudin. • PiCT® Method 2: P-75/A-65/I-180/35-S on the ACL TOP® 500 or P-80/A-65/I-180/40-S on the STA Compact® or P-75/A-65/I-180/S-40 on the BCS® XP. This method is in particularly useful for fondaparinux. • PiCT® Method 3: P-90/A-70/I-180/40-S on the ACL TOP® 500 or STA Compact®, or P-70/A-60/I-180/45-S on the BCS® XP. This method is in particularly useful for dabigatran or argatroban. • PiCT® Method 4: P-140/S-45/I160/A-40 on the ACL TOP® 500 or STA Compact®, or P-125/S-45/I-150/A-40 on the BCS® XP. This method is in particularly useful for rivaroxaban or apixaban.
With the normal PiCT®, i.e. PiCT® Method 1, wherein 50 μl of plasma is mixed with the same amount of reagent 1 (PiCT® activator), incubated for 180 sec and mixed with the same amount of reagent 2 (PiCT® start reagent) in a ACL TOP® 500 analyzer, the presence of NOACs cannot be determined in a sample. This is true even at high levels of said drugs in the sample, i.e. in the range of 300 ng/ml. Thus, in order to determine which NOAC is present in the sample, a combination of PiCT® Method 1 and PiCT® method 4 has to be used (see above for detailed description). To confirm this, spiked plasma samples with different levels of NOACs were prepared and the clotting time measured using first PiCT® Method 1 followed by PiCT® Method 4. […] In case of dabigatran present in the sample, both PiCT® Method 1 (which had to be adapted, i.e. PiCT® Method 3) and 4 are out of range as indicated in bold.

[2] = system: normal plasma pool (NPP); experiment: PiCT Method 4 (inverted PiCT) clotting time on ACL TOP 500; conditions: for Clotting time: Table 10A, PiCT Method 4, NPP spiked, mean n = 4; for PiCT ® method 4 clotting time: Table 11
Procedure: The present invention is in one aspect directed to the use of a clotting assay, in particular the PiCT® testing method on a detection system such as e.g. the ACL TOP® 500 analyzer and to a method to quantitatively and qualitatively detect anticoagulants in a sample, e.g. blood or plasma. […] PiCT® Method 4 or PiCT® inverted includes that first the start reagent is added to the sample, the mixture allowed to proceed according to the manufacturer's instructions followed by addition of the activator, i.e. a reversed order compared to standard PiCT® (see above). PiCT® Method 1 to 4 is described in more detail in the Examples.
The 4 methods (see above) are in more detail described in the Examples. Specific pipetting schemes were designed using NPP spiked with incremental amounts of anticoagulants in order to achieve high reproducibility of the test system, which is required for drug identification including use in a POC system. With regards to the ACL TOP® 500 analyzer, PiCT® Method 1 to 4 has been established as follows: • PiCT® Method 1: 50 μl of plasma is incubated for 180 sec with 50 μl of reagent 1 and afterwards 50 μl of reagent 2 is added and the time to clot is recorded on the ACL TOP® 500 (i.e. pipetting scheme: P-50/A-50/I-180/50-S).
After calculation of the RR for the different kind of anticoagulants (see Example 1) samples of NPP spiked with incremental amounts of anticoagulants were used in the ACL TOP® 500, wherein 45 μl start reagent was incubated with 140 μl plasma for 60 sec. The time to clot was recorded after addition of 40 μl of activator (i.e. so-called inverted PiCT®).

[3] = system: plasma samples; experiment: aPTT (HemosIL aPTT SP) clotting time; conditions: for Clotting time with aPTT: Table 6, spiked plasma, mean
Procedure: In order to address the above question, i.e. to determine the nature of an anticoagulant in a sample, a combination of several methods has to be performed, including PiCT® Method 1, PiCT® Method 4, aPTT (HemosIL™ aPTT SP), PT (HemosIL™ PT recombiplastin), and sometimes even a modified PiCT® Method 1 wherein polybrene has been added. In order to simulate this, plasma samples spiked with different levels of anticoagulants were analyzed using the ACL TOP® 500 analyzer. For each drug, a specific pattern was obtained, i.e. clotting times within the RR and clotting times above the RR, depending on the used testing method, which is unique at least for the class of anticoagulant or even for a specific anticoagulant.

For `CC1CNc2c(cccc2S(=O)(=O)N[C@@H](CCCNC(=N)N)C(=O)N2CC[C@@H](C)C[C@@H]2C(=O)O)C1` (stereo partly shown) [argatroban], the “Clotting time with PiCT ® Method 1” value ([1]; Table 6, 0.3 μg, mean) was 98.5 s, the “Clotting time with PiCT ® Method 1” value ([1]; Table 6, 1.5 μg, mean) was 150.3 s and the “Clotting time with PiCT ® Method 4” value ([2]; Table 4, NPP spiked with 0.3 μg per ml) was 147 s. For the same compound, the “Clotting time with PiCT ® Method 4” value ([2]; Table 6, spiked plasma, 0.3 μg, mean) was 147.4 s, the “Clotting time with PiCT ® Method 4” value ([2]; Table 6, spiked plasma, 1.5 μg, mean) was 300.0 s and the “Clotting time with aPTT” value ([3]; 0.3 μg) was 61.7 s. The “Clotting time with aPTT” value ([3]; 1.5 μg) was 106.2 s.

With `O=C(NC[C@H]1CN(c2ccc(N3CCOCC3=O)cc2)C(=O)O1)c1ccc(Cl)s1` [rivaroxaban] the “Clotting time with PiCT ® Method 1” value ([1]; Table 5, 20 ng per ml (title: Method 3 for dabigatran)) was 17 s, the “Clotting time with PiCT ® Method 1” value ([1]; Table 5, 35 ng per ml (title: Method 3 for dabigatran)) was 18 s and the “Clotting time with PiCT ® Method 1” value ([1]; Table 5, 300 ng per ml (title: Method 3 for dabigatran)) was 29.3 s. For the same compound, the “Clotting time with PiCT ® Method 1” value ([1]; Table 6, 50 ng, mean) was 19.0 s, the “Clotting time with PiCT ® Method 1” value ([1]; Table 6, 200 ng, mean) was 25.5 s and the “Clotting time with standard PiCT (Method 1) relative to reference range (RR)” value ([1]; concentrations in the range of about 300 ng/ml in the sample) was “in the RR”. For the same compound, the “Clotting time with PiCT ® Method 4” value ([2]; Table 4, NPP spiked with 20 ng per ml) was 70 s, the “Clotting time with PiCT ® Method 4” value ([2]; Table 4, NPP spiked with 35 ng per ml) was 80 s and the “Clotting time with PiCT ® Method 4” value ([2]; Table 5, spiked plasma, 20 ng per ml) was 70 s. The “Clotting time with PiCT ® Method 4” value ([2]; Table 5, spiked plasma, 35 ng per ml) was 80 s, the “Clotting time with PiCT ® Method 4” value ([2]; Table 5, spiked plasma, 300 ng per ml) was 162.1 s and the “Clotting time with PiCT ® Method 4” value ([2]; Table 6, spiked plasma, 50 ng, mean) was 83.6 s. The “Clotting time with PiCT ® Method 4” value ([2]; Table 6, spiked plasma, 200 ng, mean) was 132.8 s, the Clotting time ([2]; 5 ng/ml) was 71 s and the Clotting time ([2]; 10 ng/ml) was 83 s. It also gave a Clotting time ([2]; 50 ng/ml) of 118 s, a Clotting time ([2]; 100 ng/ml) of 149 s and a Clotting time ([2]; 200 ng/ml) of 191 s. For the same compound, the Clotting time ([2]; 300 ng/ml) was 220 s, the Clotting time ([2]; 400 ng/ml) was 248 s and the Clotting time ([2]; 500 ng/ml) was 270 s. For the same compound, the Clotting time ([2]; 600 ng/ml) was 278 s, the “PiCT ® method 4 clotting time” value ([2]; spiked plasma, 20 ng/mL (wash off level)) was 70 sec (n = 3) and the “PiCT ® method 4 clotting time” value ([2]; spiked plasma, 35 ng/mL (wash off level)) was 80 sec (n = 3). The “Clotting time with aPTT” value ([3]; 50 ng) was 34.5 s, the “Clotting time with aPTT” value ([3]; 200 ng) was 49.6 s and the “aPTT clotting time relative to reference range (RR)” value ([3]; only at higher doses, in the range of 200 ng or more) was “above the RR”.
